What all share (format): functional
The species named for test [1] is Rattus norvegicus. The test can be described thus: In vitro inhibition of sodium-dependent high-affinity choline uptake activity (1 uM choline) at 2E-5 M concentration in the absence of thiosulfate.
The species entered for test [2] is Rattus norvegicus. The test can be described thus: In vitro inhibition of sodium-dependent high-affinity choline uptake activity (1 uM choline) at 2E-5 M concentration in the presence of thiosulfate.
The species entered for test [3] is Rattus norvegicus. Put plainly: In vitro inhibition of sodium-dependent high-affinity choline uptake activity (1 uM choline) at 5E-8 M concentration in the presence of thiosulfate.
For test [4], the species on record is Rattus norvegicus. Put plainly: In vitro inhibition of sodium-dependent high-affinity choline uptake activity (1 uM choline) at 5E-8 M concentration in the absence of thiosulfate.
Test [5] is filed under the species Rattus norvegicus. The test can be described thus: In vitro inhibition of sodium-dependent high-affinity choline uptake activity (1 uM choline) at 1E-8 M concentration in the absence of thiosulfate.
The species entered for test [6] is Rattus norvegicus. Put plainly: In vitro inhibition of sodium-dependent high-affinity choline uptake activity (1 uM choline) at 1E-7 M concentration in the presence of thiosulfate.
The species named for test [7] is Rattus norvegicus. Put plainly: In vitro inhibition of sodium-dependent high-affinity choline uptake activity (1 uM choline) at 1E-7 M concentration in the absence of thiosulfate.
The species entered for test [8] is Rattus norvegicus. The test can be described thus: Na-dependent high-affinity choline uptake at 25 nM concentration for 15 min post wash preincubation time.
The species entered for test [9] is Rattus norvegicus. The test can be described thus: inhibition of sodium-dependent high-affinity choline uptake activity at 25 nM concentration for 2.5 min post wash pre-incubation time.
Test [10] is filed under the species Rattus norvegicus. Put plainly: inhibition of sodium-dependent high-affinity choline uptake activity at 25 nM concentration for 7.5 min post wash pre-incubation time.
The species named for test [11] is Rattus norvegicus. Put plainly: Na-dependent high-affinity choline uptake at 25 nM concentration for 2.5 min post wash pre-incubation time.
The species named for test [12] is Rattus norvegicus. The test can be described thus: Na-dependent high-affinity choline uptake at 25 nM concentration for 7.5 min post wash pre-incubation time.
Test [13] is filed under the species Rattus norvegicus. The test can be described thus: inhibition of sodium-dependent high-affinity choline uptake activity at 25 nM concentration for 15 min post wash pre-incubation time.

For orientation: Inhibition means the drop in the measured response relative to a control, in per cent.

Structures are written as SMILES.

`OC1(c2ccccc2)CN(CCBr)CCO1` (configuration not stated): the Inhibition in the test listed under Rattus norvegicus [1] is on record as 71%; in the test filed under Rattus norvegicus [2], 9%.

As to `C[N+]1(C)CCOC(O)(c2ccc(-c3ccc(C4(O)C[N+](C)(C)CCO4)cc3)cc2)C1` (configuration not stated) [HEMICHOLINIUM-3], the Inhibition is on record as 85% in the test listed under Rattus norvegicus [3], 83% in the test filed under Rattus norvegicus [4] and 35% in the test filed under Rattus norvegicus [5].

Regarding `OC1(c2ccc(-c3ccc(C4(O)CN(CCBr)CCO4)cc3)cc2)CN(CCBr)CCO1` (configuration not stated), the Inhibition in the test filed under Rattus norvegicus [6] came to 0%; in the test filed under Rattus norvegicus [7], 100%; in the test listed under Rattus norvegicus [9], 31.2%; in the test filed under Rattus norvegicus [3], 0%; in the test listed under Rattus norvegicus [4] it was 100%; in the test listed under Rattus norvegicus [10] it was 32.9%. Also, the Inhibition is on record as 84% in the test listed under Rattus norvegicus [5] and 34% in the test filed under Rattus norvegicus [13]. For the same compound, the results for the Choline uptake in the test listed under Rattus norvegicus [8], in the test filed under Rattus norvegicus [11] and in the test filed under Rattus norvegicus [12] were 54.9 pM (4 min)-1 (mg of protein)-1, 58.8 pM (4 min)-1 (mg of protein)-1 and 59.8 pM (4 min)-1 (mg of protein)-1, respectively.

In the test filed under Rattus norvegicus [1], `C[N+]1(C)CCOC(O)(c2ccccc2)C1` (configuration not stated) gave an Inhibition of 58%.
